Experiment [1] deals with Escherichia coli. Description: Antimicrobial activity against Escherichia coli UB 1005 assessed as reduction in microbial growth by CLSI based broth microdilution method. Format: functional. (In general: Broth dilution looks for growth in wells or tubes with falling amounts of substance.)
Experiment [2] concerns Staphylococcus aureus. Description: Antimicrobial activity against Staphylococcus aureus ATCC 25923 assessed as reduction in microbial growth by CLSI based broth microdilution method. Format: functional.
The test system of experiment [3] is Escherichia coli. Description: Antimicrobial activity against Escherichia coli ATCC 25922 assessed as reduction in microbial growth by CLSI based broth microdilution method. Format: functional.
The subject of experiment [4] is Staphylococcus aureus. Description: Antimicrobial activity against Staphylococcus aureus 43300 assessed as reduction in microbial growth by CLSI based broth microdilution method. Format: functional.
Experiment [5] has as its system Enterococcus faecalis. Description: Antimicrobial activity against Enterococcus faecalis ATCC 29212 assessed as reduction in microbial growth by CLSI based broth microdilution method. In kind it is functional.
The test system of experiment [6] is Staphylococcus epidermidis. Description: Antimicrobial activity against Staphylococcus epidermidis ATCC 12228 assessed as reduction in microbial growth by CLSI based broth microdilution method. Format: functional.
Experiment [7] in a line: Antimicrobial activity against Salmonella enterica subsp. enterica serovar Pullorum ATCC 7913 assessed as reduction in microbial growth by CLSI based broth microdilution method. In kind it is functional.
Experiment [8] deals with Salmonella typhimurium. Description: Antimicrobial activity against Salmonella typhimurium ATCC 7731 assessed as reduction in microbial growth by CLSI based broth microdilution method. Format: functional, Salmonella enterica subsp. enterica serovar Typhimurium. The following applies: Salmonella enterica.
Experiment [9] concerns Salmonella typhimurium. Description: Antimicrobial activity against Salmonella typhimurium ATCC 14028 assessed as reduction in microbial growth by CLSI based broth microdilution method. In kind it is functional, Salmonella enterica subsp. enterica serovar Typhimurium. The following applies: Salmonella enterica.
The subject of experiment [10] is Pseudomonas aeruginosa. Description: Antimicrobial activity against Pseudomonas aeruginosa ATCC 27853 assessed as reduction in microbial growth by CLSI based broth microdilution method. Format: functional.
Experiment [11] concerns Staphylococcus aureus. Description: Antimicrobial activity against Staphylococcus aureus ATCC 29213 assessed as reduction in microbial growth by CLSI based broth microdilution method. Format: functional.
Experiment [12] relates to Escherichia coli. Description: Antimicrobial activity against Escherichia coli 078 assessed as reduction in microbial growth by CLSI based broth microdilution method. In kind it is functional.
The subject of experiment [13] is Escherichia coli. Description: Antimicrobial activity against Escherichia coli K88 assessed as reduction in microbial growth by CLSI based broth microdilution method. In kind it is functional.
Experiment [14] has as its system Escherichia coli. Description: Antimicrobial activity against Escherichia coli K99 assessed as reduction in microbial growth by CLSI based broth microdilution method. Format: functional.
Experiment [15] concerns Escherichia coli. Description: Drug resistance, ratio of MIC for Escherichia coli ATCC 25922 after 30 passages to MIC for Escherichia coli ATCC 25922 […] after initial exposure. Format: functional.

Structures are written as SMILES.

For the compound `CC(C)=CCC/C(C)=C/C=O` [CITRAL], the MIC came to 16400 µg/mL in [1]; 1020 µg/mL in experiment [2]; 8190 µg/mL in experiment [3]; 1020 µg/mL in experiment [4]; 4100 µg/mL in experiment [5]; 4100 µg/mL in experiment [6]. Also, the MIC in experiment [7] was determined as 8190 µg/mL; in experiment [8], 8190 µg/mL; in experiment [9] it was 8190 µg/mL; in experiment [10], 4100 µg/mL; in experiment [11] it was 1020 µg/mL; in experiment [12] it was 8190 µg/mL. The MIC in experiment [13] is 16400 µg/mL; in experiment [14] it was 8190 µg/mL.
Regarding `O=C(O)c1cn(C2CC2)c2cc(N3CCNCC3)c(F)cc2c1=O` [CIPROFLOXACIN], in experiment [15], the Ratio came out at 2.
Take `C=C(C)C1CC=C(C=O)CC1` (stereo not given) [PERILLALDEHYDE]: the minimum inhibitory concentration (MIC) in experiment [1] turned out to be 16400 µg/mL; in experiment [2], 1230 µg/mL; in [3], 16400 µg/mL; in [4], 512 µg/mL; in experiment [5] it was 512 µg/mL; in experiment [6], 256 µg/mL. Moreover, the MIC worked out at 16400 µg/mL in experiment [7]; 16400 µg/mL in experiment [8]; 16400 µg/mL in experiment [9]; 1230 µg/mL in experiment [10]; 2050 µg/mL in [11]; 16400 µg/mL in experiment [12]. Also, the figures for the MIC in experiment [13] and in experiment [14] were 8190 µg/mL and 16400 µg/mL, respectively.
For the compound `Cc1ccc(C(C)C)cc1O` [CARVACROL], the MIC in experiment [1] amounted to 256 µg/mL; in experiment [2], 128 µg/mL; in experiment [3], 256 µg/mL; in experiment [4] it was 256 µg/mL; in experiment [5], 256 µg/mL; in experiment [6], 128 µg/mL. Also, the MIC in [7], in experiment [8], in experiment [9], in [10], in experiment [11] and in [12] was 128 µg/mL throughout. In addition, the MIC came out at 256 µg/mL in experiment [13] and 128 µg/mL in [14].
With `Cc1ccc(C(C)C)c(O)c1` [THYMOL], the MIC came out at 256 µg/mL in [1]; 256 µg/mL in experiment [2]; 256 µg/mL in experiment [3]; 256 µg/mL in experiment [4]; 256 µg/mL in experiment [5]; 128 µg/mL in [6]. Further, the MIC in experiment [7] worked out at 256 µg/mL; in [8], 128 µg/mL; in [9], 256 µg/mL; in experiment [10], 256 µg/mL; in experiment [11] it was 256 µg/mL; in [12], 64 µg/mL. The values for the MIC in [13] and in experiment [14] were 128 µg/mL and 256 µg/mL, respectively.
For `CC(C)=CCCC(C)CC=O` (stereo not given), the MIC in experiment [1] was found to be 16400 µg/mL; in [2] it was 16400 µg/mL; in experiment [3], 16400 µg/mL; in [4], 4100 µg/mL; in experiment [5], 1020 µg/mL; in experiment [6] it was 16400 µg/mL. The MIC in experiment [7] is 32800 µg/mL; in [8], 32800 µg/mL; in [9], 32800 µg/mL; in experiment [10], 16400 µg/mL; in experiment [11], 4100 µg/mL; in experiment [12], 32800 µg/mL. Also, the MIC in experiment [13] and in experiment [14] was 32800 µg/mL in each case.
Consider `CC(C)c1ccc(C=O)cc1` [CUMINALDEHYDE], for which the MIC turned out to be 16400 µg/mL in experiment [1]; 8190 µg/mL in [2]; 8190 µg/mL in experiment [3]; 2050 µg/mL in experiment [4]; 2050 µg/mL in experiment [5]; 8190 µg/mL in experiment [6]. For the same compound, the minimum inhibitory concentration (MIC) in experiment [7] came out at 8190 µg/mL; in [8], 8190 µg/mL; in experiment [9] it was 8190 µg/mL; in experiment [10], 8190 µg/mL; in [11], 4100 µg/mL; in experiment [12], 16400 µg/mL. Further, the MIC is 16400 µg/mL in experiment [13] and 8190 µg/mL in experiment [14].

For orientation: MIC means the least concentration at which growth counts as inhibited.

These data come from ChEMBL document CHEMBL6087462, “Cuminaldehyde Potentiates Antiproteolytic Peptide Efficacy via Parallel Pathways of Enhanced Inner Membrane-Damaging Activity and Inhibition of Bacterial Energy Metabolism” (J Med Chem, 2025).
